Source: patent US20120058989A1, “ANTIBACTERIAL FLUOROQUINOLONE ANALOGS” (Achaogen, Inc., priority 2008, published 2012)

Legend:
Experiment in all cases: MIC, CLSI broth microdilution
Format in all cases: cell-based
[1] = test system: P. aeruginosa APAE001 (Fluoroquinolone-susceptible, ATCC27853); settings: Table 2
Protocol: (§1) Minimum inhibitory concentrations (MIC) were determined by reference Clinical and Laboratory Standards Institute (CLSI) broth microdilution methods per M7-A7 [2006]. Quality control ranges utilizing E. coli ATCC 25922, P. aeruginosa ATCC 27853 and S. aureus ATCC 29213, and interpretive criteria for comparator agents were as published in CLSI M100-S17 [2007]. Briefly, serial two-fold dilutions of the test compounds were prepared at 2× concentration in Mueller Hinton Broth. The compound dilutions were mixed in 96-well assay plates in a 1:1 ratio with bacterial inoculum. The inoculum was prepared by suspension of a colony from an agar plate that was prepared the previous day. Bacteria were suspended in sterile saline and added to each assay plate to obtain a final concentration of 5×10^5 CFU/mL. The plates were incubated at 35° C. for 20 hours in ambient air.

[2] = test system: E. coli AECO001 (Fluoroquinolone susceptible, ATCC25922); settings: Table 2, 35° C., 20 hours
Protocol: as §1

[3] = test system: P. aeruginosa APAE054 (Fluoroquinolone-resistant); settings: Table 2
Protocol: as §1

[4] = test system: S. aureus ASAU1031 (Fluoroquinolone-resistant); settings: Table 2
Protocol: as §1

[5] = test system: S. pneumoniae ASPN001 (Fluoroquinolone-susceptible, ATCC49619); settings: Table 2
Protocol: as §1

[6] = test system: A. baumannii AABA1065 (Fluoroquinolone-susceptible); settings: Table 2
Protocol: as §1

[7] = test system: S. aureus ASAU001 (Fluoroquinolone-susceptible, ATCC29213); settings: Table 2
Protocol: as §1

[8] = test system: S. pneumoniae ASPN1027 (Fluoroquinolone-resistant); settings: Table 2
Protocol: as §1

[9] = test system: A. baumannii AABA1009 (Fluoroquinolone-resistant); settings: Table 2
Protocol: as §1

[10] = test system: E. coli AECO066 (Fluoroquinolone-resistant); settings: Table 2
Protocol: as §1

Row | SMILES | MIC APAE 001 [1] | MIC AECO 001 [2] | MIC APAE 054 [3] | MIC ASAU 1031 [4] | MIC ASPN 001 [5] | MIC AABA 1065 [6] | MIC ASAU 001 [7] | MIC ASPN 1027 [8] | MIC AABA 1009 [9] | MIC AECO 066 [10]
1 | N[C@H]1C[C@H]2CCCc3c(c(F)cc4c(=O)c(C(=O)O)cn(C5CC5)c34)N2C1.O=C(O)C(F)(F)F [7B/17, (7aR,9S)-9-Amino-4-cyclopropyl-12-fluoro-1-oxo-4,5,6,7,7a,8,9,10-octahydro-1H-pyrrolo[1′,′:1,7]-azepino[2,3-h]quinoline-2-carboxylic acid trifluoroacetate] | B (MIC's of greater than 1.0 μg/mL to 8.0 μg/mL = B) | A (MIC's of 1.0 μg/mL or less = A) | C (MIC's of greater than 8.0 μg/mL = C) | B (MIC's of greater than 1.0 μg/mL to 8.0 μg/mL = B) | A (MIC's of 1.0 μg/mL or less = A) | A (MIC's of 1.0 μg/mL or less = A) | A (MIC's of 1.0 μg/mL or less = A) | B (MIC's of greater than 1.0 μg/mL to 8.0 μg/mL = B) | C (MIC's of greater than 8.0 μg/mL = C) | B (MIC's of greater than 1.0 μg/mL to 8.0 μg/mL = B)
2 | O=C(O)c1cn(C2CC2)c2c3c(c(F)cc2c1=O)N1CCCC1CSC3 (centres unmarked) [8/10, 13-Cyclopropyl-8-fluoro-10-oxo-3a,4,5,6,10,13-hexahydro-1H,3H-pyrrolo[2′,1′:3,4][1,4]thiazepino[5,6-h]quinoline-11-carboxylic acid] | C (MIC's of greater than 8.0 μg/mL = C) | B (MIC's of greater than 1.0 μg/mL to 8.0 μg/mL = B) | C (MIC's of greater than 8.0 μg/mL = C) | C (MIC's of greater than 8.0 μg/mL = C) | C (MIC's of greater than 8.0 μg/mL = C) | B (MIC's of greater than 1.0 μg/mL to 8.0 μg/mL = B) | A (MIC's of 1.0 μg/mL or less = A) | C (MIC's of greater than 8.0 μg/mL = C) | C (MIC's of greater than 8.0 μg/mL = C) | C (MIC's of greater than 8.0 μg/mL = C)
3 | O=C(O)c1cn(C2CC2)c2c3c(c(F)cc2c1=O)N1CCCC1CS(=O)(=O)C3 (centres unmarked) [8/12, 13-Cyclopropyl-8-fluoro-10-oxo-3a,4,5,6,10,13-hexahydro-1H,3H-pyrrolo[2′,1′:3,4][1,4]thiazepino[5,6-h]quinoline-11-carboxylic acid 2,2-dioxide] | C (MIC's of greater than 8.0 μg/mL = C) | C (MIC's of greater than 8.0 μg/mL = C) | C (MIC's of greater than 8.0 μg/mL = C) | C (MIC's of greater than 8.0 μg/mL = C) | C (MIC's of greater than 8.0 μg/mL = C) | C (MIC's of greater than 8.0 μg/mL = C) | B (MIC's of greater than 1.0 μg/mL to 8.0 μg/mL = B) | C (MIC's of greater than 8.0 μg/mL = C) | C (MIC's of greater than 8.0 μg/mL = C) | C (MIC's of greater than 8.0 μg/mL = C)
4 | O=C(O)c1cn(C2CC2)c2c3c(c(F)cc2c1=O)N1CCCC1C[S+]([O-])C3 (centres unmarked) [8/14, 13-Cyclopropyl-8-fluoro-10-oxo-3a,4,5,6,10,13-hexahydro-1H,3H-pyrrolo[2′,1′:3,4][1,4]thiazepino[5,6-h]quinoline-1′-carboxylic acid 2-oxide] | C (MIC's of greater than 8.0 μg/mL = C) | B (MIC's of greater than 1.0 μg/mL to 8.0 μg/mL = B) | C (MIC's of greater than 8.0 μg/mL = C) | C (MIC's of greater than 8.0 μg/mL = C) | C (MIC's of greater than 8.0 μg/mL = C) | B (MIC's of greater than 1.0 μg/mL to 8.0 μg/mL = B) | B (MIC's of greater than 1.0 μg/mL to 8.0 μg/mL = B) | C (MIC's of greater than 8.0 μg/mL = C) | C (MIC's of greater than 8.0 μg/mL = C) | C (MIC's of greater than 8.0 μg/mL = C)
5 | O=C(O)c1cn(C2CC2)c2c3c(c(F)cc2c1=O)N1CCCC1C(=O)NC3 (centres unmarked) [10/6, 13-Cyclopropyl-8-fluoro-3,10-dioxo-2,3,3a,4,5,6,10,13-octahydro-1H-pyrrolo[2′,1′:3,4][1,4]diazepino[5,6-h]quinoline-1′-carboxylic acid] | B (MIC's of greater than 1.0 μg/mL to 8.0 μg/mL = B) | A (MIC's of 1.0 μg/mL or less = A) | C (MIC's of greater than 8.0 μg/mL = C) | B (MIC's of greater than 1.0 μg/mL to 8.0 μg/mL = B) | A (MIC's of 1.0 μg/mL or less = A) | B (MIC's of greater than 1.0 μg/mL to 8.0 μg/mL = B) | A (MIC's of 1.0 μg/mL or less = A) | B (MIC's of greater than 1.0 μg/mL to 8.0 μg/mL = B) | C (MIC's of greater than 8.0 μg/mL = C) | C (MIC's of greater than 8.0 μg/mL = C)
6 | O=C(O)c1cn(C2CC2)c2c3c(c(F)cc2c1=O)N1CCCC1COC3 (centres unmarked) [11/8, 13-Cyclopropyl-8-fluoro-10-oxo-3a,4,5,6,10,13-hexahydro-1H,3H-pyrrolo[2′,1′:3,4][1,4]oxazepino[5,6-h]quinoline-11-carboxylic acid] | C (MIC's of greater than 8.0 μg/mL = C) | A (MIC's of 1.0 μg/mL or less = A) | C (MIC's of greater than 8.0 μg/mL = C) | B (MIC's of greater than 1.0 μg/mL to 8.0 μg/mL = B) | A (MIC's of 1.0 μg/mL or less = A) | A (MIC's of 1.0 μg/mL or less = A) | A (MIC's of 1.0 μg/mL or less = A) | C (MIC's of greater than 8.0 μg/mL = C) | C (MIC's of greater than 8.0 μg/mL = C) | C (MIC's of greater than 8.0 μg/mL = C)
7 | O=C(O)c1cn(C2CC2)c2c3c(c(F)cc2c1=O)N1CCCC1CN=C3 (centres unmarked) [12/4, 13-Cyclopropyl-8-fluoro-10-oxo-3a,4,5,6,10,13-hexahydro-3H-pyrrolo[2′,1′:3,4][1,4]diazepino[5,6-h]quinoline-11-carboxylic acid] | B (MIC's of greater than 1.0 μg/mL to 8.0 μg/mL = B) | A (MIC's of 1.0 μg/mL or less = A) | C (MIC's of greater than 8.0 μg/mL = C) | C (MIC's of greater than 8.0 μg/mL = C) | B (MIC's of greater than 1.0 μg/mL to 8.0 μg/mL = B) | C (MIC's of greater than 8.0 μg/mL = C) | A (MIC's of 1.0 μg/mL or less = A) | C (MIC's of greater than 8.0 μg/mL = C) | C (MIC's of greater than 8.0 μg/mL = C) | C (MIC's of greater than 8.0 μg/mL = C)
8 | O=C(O)C(F)(F)F.O=C(O)c1cn(C2CC2)c2c3c(c(F)cc2c1=O)N1CCCC1CNC3 (centres unmarked) [13/5, 13-Cyclopropyl-8-fluoro-10-oxo-2,3,3a,4,5,6,10,13-octahydro-1H-pyrrolo[2′,1′:3,4][1,4]diazepino[5,6-h]quinoline-11-carboxylic acid trifluoroacetate] | B (MIC's of greater than 1.0 μg/mL to 8.0 μg/mL = B) | A (MIC's of 1.0 μg/mL or less = A) | C (MIC's of greater than 8.0 μg/mL = C) | C (MIC's of greater than 8.0 μg/mL = C) | B (MIC's of greater than 1.0 μg/mL to 8.0 μg/mL = B) | A (MIC's of 1.0 μg/mL or less = A) | A (MIC's of 1.0 μg/mL or less = A) | C (MIC's of greater than 8.0 μg/mL = C) | C (MIC's of greater than 8.0 μg/mL = C) | C (MIC's of greater than 8.0 μg/mL = C)
